Experimental data as given in PMC8878317, “Chemogenomics identifies acetyl-coenzyme A synthetase as a target for malaria treatment and prevention” (Cell Chemical Biology, 2022).

How the values were obtained:
PfAcAS WT = PfAcAS WT (Plasmodium falciparum, UniProt C6KTB4); experiment: EnzChek assay, recombinant PfAcAS WT (steady-state kinetics and IC50); type: biochemical, P. falciparum; conditions: substrate varied, other two saturating
Method: (§1) Steady-state kinetic measurements were conducted at room temperature using a PheraStar plate reader (BMG). The first step of the reaction of PfAcAS, which produces inorganic pyrophosphate (PPi) that is converted to two molecules of inorganic phosphate using a pyrophosphatase enzyme, was continuously monitored using the EnzChek Phosphate Assay Kit, which gives an absorbance readout at 360 nm (Figure 4A) ([Webb, 1992]). […] By adding CoA, the reaction rapidly proceeds to the second step resulting in further release of pyrophosphate, making the EnzChek assay a suitable option to continuously monitor the activity of PfAcAS. Typical kinetic assays were carried out in clear, flat-bottom, polystyrene, 384-well plates (Greiner) in an 80 μL reaction volume containing 100 mM HEPES (pH7.4), 100 mM NaCl, 250 mM KCl, 50 mM MgCl2, 1 mM DTT, 0.004% Tween 20, 0.5 U/mL pyrophosphatase, 0.1 mM MESG, 0.5 U/mL PNP, 2 mM ATP, 2 mM acetate, 0.5 mM CoA and 5 nM recombinant PfAcAS WT or 10 nM recombinant PfAcAS A597V or T648M. Assays were performed by adding 40 μL of a 2-times concentrated substrate mixture including MESG to all wells, and the reactions started by adding 40 μL of a 2-times concentrated reaction mixture containing all other components. The reactions were carried out for 2 to 4 hr with absorbance readings at 360 nm every two to four minutes. Reaction rates were extracted from the linear phase of activity, usually using 10 to 20 points between times of 30 and 100 min of the reactions. Using a phosphate standard curve obtained under the same buffer conditions used for the PfAcAS reactions (Figure S5A), the rates were then converted to velocity per second, conversion of one nanomolar of phosphate, per nanomolar of enzyme, per second. The substrates Km values were determined by varying the concentration of one of the substrates at saturating concentration of the other two substrates. Steady-state data were fitted using the nonlinear, least-squares, curve-fitting programs of Sigma-Plot for Windows, version 14.0. Individual saturation curves were fit to Equation 1(Equation 1) v=VS/K+S where V is the maximal velocity, S is the substrate concentration and K is the Michaelis constant for the substrate (Km). Individual saturation curves displaying substrate inhibition were fit to Equation 2(Equation 2) v=VS/K+S×(1+S/Ks) where Ks is the substrate inhibition constant.
(§2) To determine the steady-state inhibition parameters and patterns associated with both inhibitors, PfAcAS activity was studied in the presence of variable concentrations of one substrate, ATP, acetate or CoA, fixed saturating concentration of the other two substrates (acetate and CoA, ATP and CoA, or ATP and acetate) and several fixed concentrations of inhibitor. Assay ready plates containing different concentrations of inhibitor were prepared using an Echo 550 acoustic dispenser (Labcyte Inc.). The assays were carried out as described in the previous section. […] For better comparison between both inhibitors and proteins, the ymin was fixed to zero and the ymax to 100. Inhibition data showing linear, competitive patterns in double-reciprocal plots were fit to Equation 4(Equation 4) v=VS/K(1+I/Ki)+S where Ki is the dissociation constant for the enzyme-inhibitor complex. Inhibition data showing linear, mixed inhibition patterns in double-reciprocal plots were fit to Equation 5(Equation 5) v=VS/K(1+I/Kis)+S(1+I/Kii) where Kis is the dissociation constant for the free enzyme-inhibitor complex and Kii is the dissociation constant for the enzyme-substrate-inhibitor complex. Inhibition data showing linear, uncompetitive patterns in double-reciprocal plots were fit to Equation 6(Equation 6) v=VS/K+S(1+I/Ki)

PfAcAS T648M = target: T1, PfAcAS T648M (Plasmodium falciparum, UniProt C6KTB4, T648M); experiment: EnzChek assay, recombinant PfAcAS T648M; type: biochemical, P. falciparum; conditions: substrate varied, other two saturating
T1 sequence (C6KTB4 1-997 T648M): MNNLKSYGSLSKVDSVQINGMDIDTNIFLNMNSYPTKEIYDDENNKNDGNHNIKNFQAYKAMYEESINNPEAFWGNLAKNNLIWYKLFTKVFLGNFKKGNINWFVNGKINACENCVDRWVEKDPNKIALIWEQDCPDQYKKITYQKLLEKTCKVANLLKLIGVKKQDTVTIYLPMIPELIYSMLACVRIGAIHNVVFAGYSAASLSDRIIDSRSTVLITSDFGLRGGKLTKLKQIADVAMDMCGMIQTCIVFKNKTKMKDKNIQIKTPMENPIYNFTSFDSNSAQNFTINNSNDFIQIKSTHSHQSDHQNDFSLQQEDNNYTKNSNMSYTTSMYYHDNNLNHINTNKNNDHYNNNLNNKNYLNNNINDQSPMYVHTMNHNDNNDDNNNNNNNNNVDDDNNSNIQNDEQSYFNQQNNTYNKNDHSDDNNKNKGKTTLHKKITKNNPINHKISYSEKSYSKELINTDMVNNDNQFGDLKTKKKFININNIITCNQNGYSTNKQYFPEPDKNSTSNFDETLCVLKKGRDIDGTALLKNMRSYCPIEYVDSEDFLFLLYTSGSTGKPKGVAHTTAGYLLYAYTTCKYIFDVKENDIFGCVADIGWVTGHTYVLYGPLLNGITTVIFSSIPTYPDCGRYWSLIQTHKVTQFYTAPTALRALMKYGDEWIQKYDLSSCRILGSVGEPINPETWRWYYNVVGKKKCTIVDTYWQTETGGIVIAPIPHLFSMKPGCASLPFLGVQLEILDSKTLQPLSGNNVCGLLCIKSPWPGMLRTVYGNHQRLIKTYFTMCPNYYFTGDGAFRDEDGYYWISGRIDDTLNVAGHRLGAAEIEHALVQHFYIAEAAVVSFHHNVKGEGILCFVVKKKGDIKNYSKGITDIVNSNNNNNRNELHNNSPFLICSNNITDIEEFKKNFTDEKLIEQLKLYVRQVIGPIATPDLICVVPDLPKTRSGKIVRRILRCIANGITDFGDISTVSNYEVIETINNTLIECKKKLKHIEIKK
Method: as §1, §2

PfAcAS A597V = target: T2, PfAcAS A597V (Plasmodium falciparum, UniProt C6KTB4, A597V); experiment: EnzChek assay, recombinant PfAcAS A597V; type: biochemical, P. falciparum; conditions: substrate varied, other two saturating
T2 sequence (C6KTB4 1-997 A597V): T1 sequence (C6KTB4 1-997 T648M)
Method: as §1, §2

[1] = system: P. falciparum 3D7 parasites; experiment: Metabolomic profiling of compound-treated parasites (LC/MS); type: cell-based; parameters: Metabolite data: dTMP / Metabolite data: GMP / Metabolite data: S-Adenosyl-L-Homocysteine / Metabolite data: 1_3-Bisphosphoglyceric acid: scale not given here;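 as to Metabolite data: 3-Phosphoglycerate: Log2 fold change in abundance versus untreated parasite controls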;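 as to Metabolite data: Myo-Inositol: Log2 fold change in abundance versus untreated parasite controls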;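 as to Metabolite data: N-Carbamoyl-L-Aspartate: Log2 fold change in abundance versus untreated parasite controls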;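 as to Metabolite data: Nicotinate: Log2 fold change in abundance versus untreated parasite controls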
Procedure, shortened: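 Magnetically purified trophozoites (1×10^8 parasites/mL) recovered 1 h in RPMI 1640, incubated a further 2.5 h, quenched in 90% methanol with labeled aspartate. Extracts analysed by reverse-phase C18 LC with negative-mode Orbitrap MS; peak areas normalized to internal standards, blank-subtracted and averaged by condition.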

In the case of `Nc1ncnc2c1ncn2[C@@H]1O[C@H](COP(=O)(O)OP(=O)(O)OP(=O)(O)O)[C@@H](O)[C@H]1O` [ATP], the Km (PfAcAS WT) is reported as 93 µM, the “Vmax (s-1), PfAcAS WT” value (PfAcAS WT) is reported as 2.4 ± 0.03 s⁻¹ and the Km (PfAcAS T648M) is reported as 400 ± 17 µM. For the same compound, the “Vmax (s-1), PfAcAS T648M” value (PfAcAS T648M) was 1.9 ± 0.03 s⁻¹, the Km (PfAcAS A597V) was 140 ± 5 µM and the “Vmax (s-1), PfAcAS A597V” value (PfAcAS A597V) was 0.54 ± 0.01 s⁻¹.
With `CC1(C)N=C(N)N=C(N)N1OCCCOc1cc(Cl)c(Cl)cc1Cl` [WR99210] the “Metabolite data: 1_3-Bisphosphoglyceric acid” value [1] was 0, the “Metabolite data: 2_3-Diphosphoglyceric acid” value [1] was 0.15 and the “Metabolite data: 3-Phosphoglycerate” value [1] was 0. The “Metabolite data: 4-Aminobutyrate” value [1] was 0.89, the “Metabolite data: 4-Phosphopantothenate” value [1] was 0.06 and the “Metabolite data: 4-phosphopantetheine” value [1] was 0. For the same compound, the “Metabolite data: 5-aminopentanoic acid” value [1] was 0, the “Metabolite data: 5-phosphoribosyl-1-pyrophosphate” value [1] was 0 and the “Metabolite data: 6-Phospho-D-Gluconate” value [1] was 0.03. The “Metabolite data: ADP-D-Glucose” value [1] was -0.24, the “Metabolite data: Acetyl-CoA” value [1] was 0.03 and the “Metabolite data: Acetyllysine” value [1] was 0.3. The “Metabolite data: Aconitate” value [1] was -0.02, the “Metabolite data: CDP” value [1] was 0.18 and the “Metabolite data: CDP-Ethanolamine” value [1] was 0.69. The “Metabolite data: CDP-choline” value [1] was 0, the “Metabolite data: CMP” value [1] was -0.07 and the “Metabolite data: CTP” value [1] was -0.11. The “Metabolite data: Citrate/Isocitrate” value [1] was 0.01, the “Metabolite data: Cyclic-AMP” value [1] was 0 and the “Metabolite data: Dihydroorotate” value [1] was 0.21. For the same compound, the “Metabolite data: FAD” value [1] was 0.03, the “Metabolite data: FMN” value [1] was -0.26 and the “Metabolite data: Fructose-1,6-Bisphosphate” value [1] was 0. The “Metabolite data: Fumarate” value [1] was 0.11, the “Metabolite data: GDP” value [1] was 0.23 and the “Metabolite data: GMP” value [1] was 0.07. The “Metabolite data: GTP” value [1] was -0.36, the “Metabolite data: Glucose-1/6-Phosphate” value [1] was -0.02 and the “Metabolite data: Glutathione Disulfide” value [1] was 0.14. The “Metabolite data: Hexose” value [1] was 0, the “Metabolite data: Hydroxyisocaproic acid” value [1] was 0 and the “Metabolite data: Indole” value [1] was 0.05. The “Metabolite data: Ketoleucine” value [1] was 0, the “Metabolite data: L-arginino-succinate” value [1] was 0 and the “Metabolite data: Lactate” value [1] was 0.42. The “Metabolite data: Malate” value [1] was 0.06, the “Metabolite data: Myo-Inositol” value [1] was 0.64 and the “Metabolite data: N-Acetyl-Glutamate” value [1] was 0.09. The “Metabolite data: N-Acetyl-L-Alanine” value [1] was 0.02, the “Metabolite data: N-Acetyl-L-Ornithine” value [1] was 0.2 and the “Metabolite data: N-Carbamoyl-L-Aspartate” value [1] was 0.03. The “Metabolite data: NAD+” value [1] was 0.17, the “Metabolite data: NADH” value [1] was 3.14 and the “Metabolite data: NADP+” value [1] was 0.03. The “Metabolite data: NADPH” value [1] was 0.5, the “Metabolite data: Nicotinate” value [1] was 0.23 and the “Metabolite data: Octulose 8/1-Phosphate” value [1] was 0.08. The “Metabolite data: Orotate” value [1] was 0.09, the “Metabolite data: PD” value [1] was 0 and the “Metabolite data: PE” value [1] was 0. For the same compound, the “Metabolite data: PEEK” value [1] was 0, the “Metabolite data: Phenol Red” value [1] was 0 and the “Metabolite data: Pyroglutamic acid” value [1] was 0.03. The “Metabolite data: S-Adenosyl-L-Homocysteine” value [1] was 0, the “Metabolite data: S-methyl-5'-thioadenosine” value [1] was 0.14 and the “Metabolite data: SD” value [1] was 0. The “Metabolite data: Sedoheptulose Bisphosphate” value [1] was 0.08, the “Metabolite data: UDP” value [1] was 0.22 and the “Metabolite data: UDP-D-Glucose” value [1] was 0.05. The “Metabolite data: UDP-D-Glucuronate” value [1] was 0.01, the “Metabolite data: UDP-N-Acetyl-Glucosamine” value [1] was 0.06 and the “Metabolite data: UMP” value [1] was 0. For the same compound, the “Metabolite data: UTP” value [1] was -0.42, the “Metabolite data: a-ketoglutarate” value [1] was 0.08 and the “Metabolite data: acetyl-aspartate” value [1] was 0. The “Metabolite data: arginine” value [1] was 0, the “Metabolite data: asparagine” value [1] was 0 and the “Metabolite data: aspartate” value [1] was 0. For the same compound, the “Metabolite data: biotin” value [1] was 0, the “Metabolite data: chlorpropamide” value [1] was 0 and the “Metabolite data: coenzyme A” value [1] was 0. For the same compound, the “Metabolite data: dAMP” value [1] was -0.3, the “Metabolite data: dATP” value [1] was -0.89 and the “Metabolite data: dCDP” value [1] was 0.46. For the same compound, the “Metabolite data: dCMP” value [1] was 0.32, the “Metabolite data: dCTP” value [1] was 0.42 and the “Metabolite data: dGDP/ADP” value [1] was 0. The “Metabolite data: dGMP/AMP” value [1] was 0, the “Metabolite data: dGTP/ATP” value [1] was 0 and the “Metabolite data: dTDP” value [1] was 0.16. For the same compound, the “Metabolite data: dTMP” value [1] was -0.05, the “Metabolite data: dTTP” value [1] was -0.28 and the “Metabolite data: folate” value [1] was 0. For the same compound, the “Metabolite data: glucono-lactone” value [1] was 0, the “Metabolite data: glutamate” value [1] was 0 and the “Metabolite data: glutamine” value [1] was 0. For the same compound, the “Metabolite data: glutathione” value [1] was 0, the “Metabolite data: histidine” value [1] was 0 and the “Metabolite data: hydroxyproline/Aminolevulinate” value [1] was 0. For the same compound, the “Metabolite data: isoleucine” value [1] was 0, the “Metabolite data: leucine” value [1] was 0 and the “Metabolite data: maleic acid” value [1] was 0. The “Metabolite data: methionine” value [1] was 0, the “Metabolite data: nicotinamide mononucleotide” value [1] was 0 and the “Metabolite data: orotidine-5'-phosphate” value [1] was 0.
